Where two headings read alike, the source gives them in different places. Each block holds one compound with its values, some of them ahead of it.
What was measured:
[1] = target: CLK3 (Homo sapiens, UniProt P49761); experiment: CLK3 kinase activity assay (Z-lyte, Ser/Thr 18 peptide)
[2] = system: liver cancer (3 cell lines); experiment: CellTiter-Glo Viability Assay, liver cancer; assay type: cell-based; conditions: Homo sapiens, inhibition of cancer cell proliferation
[3] = system: ovarian cancer (4 cell lines); experiment: CellTiter-Glo Viability Assay, ovarian cancer; assay type: cell-based; conditions: Homo sapiens, inhibition of cancer cell proliferation
[4] = system: prostate cancer (5 cell lines); experiment: CellTiter-Glo Viability Assay, prostate cancer; assay type: cell-based; conditions: Homo sapiens
[5] = target: T1, CLK2 (Homo sapiens, UniProt P49760); experiment: CLK2 kinase activity assay (Z-lyte, Ser/Thr 6 peptide); assay type: biochemical; conditions: recombinant CLK2 kinase, ATP 60 μM; read-out: EC50
T1 construct: purchased Thermo Fisher (Life Technologies), Z'-LYTE Kinase Assay Kits
Protocol: All reactions were performed in duplicate.

[6] = system: all 50 cell lines; experiment: CellTiter-Glo Viability Assay, average across all cell lines; assay type: cell-based; conditions: Homo sapiens; across all 50 cell lines; read-out: average EC50 for inhibition of cancer cell proliferation
Procedure, shortened: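 Human cancer cell lines from breast, colorectal, haematopoietic/lymphoid, liver, lung, ovarian, pancreatic and prostate tumours were seeded at 300-3,000 cells/well and exposed to compound in duplicate for four days at 37° C, 5% CO2. Viable cells were measured by ATP luminescence; EC50 values came from dose-response curves.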

[7] = system: lung cancer (4 cell lines); experiment: CellTiter-Glo Viability Assay, lung cancer; assay type: cell-based; conditions: Homo sapiens, inhibition of cancer cell proliferation
[8] = system: pancreatic cancer (8 cell lines); experiment: CellTiter-Glo Viability Assay, pancreatic cancer; assay type: cell-based; conditions: Homo sapiens, inhibition of cancer cell proliferation
[9] = system: colorectal cancer (6 cell lines); experiment: CellTiter-Glo Viability Assay, colorectal cancer; assay type: cell-based; conditions: Homo sapiens, inhibition of cancer cell proliferation
[10] = system: MDA-MB-231-Luc; experiment: CellTiter-Glo Viability Assay, breast cancer; assay type: cell-based; conditions: Homo sapiens, 96 h; MDA-MB-231-Luc, breast cancer, four days; read-out: EC50
[11] = system: HCC1599; experiment: CellTiter-Glo Viability Assay, breast cancer; assay type: cell-based; conditions: Homo sapiens, 96 h; HCC1599, breast cancer, four days; read-out: EC50
[12] = system: T47D; experiment: CellTiter-Glo Viability Assay, breast cancer; assay type: cell-based; conditions: Homo sapiens, 96 h, breast cancer, four days, read-out: EC50
[13] = system: DU4475; experiment: CellTiter-Glo Viability Assay, breast cancer; assay type: cell-based; conditions: Homo sapiens, DU-4475, 96 h; DU4475, breast cancer, four days; read-out: EC50
[14] = system: BT-549; experiment: CellTiter-Glo Viability Assay, breast cancer; assay type: cell-based; conditions: Homo sapiens, 96 h; BT-549, breast cancer, four days; read-out: EC50
[15] = system: CAMA1; experiment: CellTiter-Glo Viability Assay, breast cancer; assay type: cell-based; conditions: Homo sapiens, CAMA-1, 96 h; CAMA1, breast cancer, four days; read-out: EC50
[16] = system: ZR-75-1; experiment: CellTiter-Glo Viability Assay, breast cancer; assay type: cell-based; conditions: Homo sapiens, 96 h; ZR-75-1, breast cancer, four days; read-out: EC50
[17] = system: MCF7; experiment: CellTiter-Glo Viability Assay, breast cancer; assay type: cell-based; conditions: Homo sapiens, 96 h; MCF7, breast cancer, four days; read-out: EC50
[18] = system: haematopoietic & lymphoid tumors (13 cell lines); experiment: CellTiter-Glo Viability Assay, haematopoietic & lymphoid tumors; assay type: cell-based; conditions: Homo sapiens, inhibition of cancer cell proliferation
[19] = SNU-398, SNU398 cell line, read-out: Liver cancer, EC50 SNU398
[20] = HEPG2 cell line, read-out: Liver cancer, EC50 HEPG2
[21] = PLC/PRF/5 cell line, read-out: Liver cancer, EC50 PLC/PRF/5
[22] = DU-145, read-out: Prostate cancer EC50 Du-145
[23] = PC-3, PC3 cell line, inhibition of cancer cell proliferation, read-out: Prostate cancer EC50 PC3
[24] = 22Rv1 cell line, inhibition of cancer cell proliferation, read-out: Prostate cancer EC50 22Rv1
[25] = LNCap clone FGC cell line, inhibition of cancer cell proliferation, read-out: Prostate cancer EC50 LNCap clone FGC
[26] = VCaP (Sigma) cell line, inhibition of cancer cell proliferation, read-out: Prostate cancer EC50 VCaP (Sigma)
[27] = A-427, A427 cell line, read-out: Lung cancer, EC50 (μM) A427
[28] = HCC78, HCC-78 cell line, read-out: Lung cancer, EC50 (μM) HCC-78
[29] = NCI-H460 cell line, read-out: Lung cancer, EC50 (μM) NCI-H460
[30] = NCI-H522 cell line, read-out: Lung cancer, EC50 (μM) NCI-H522
[31] = BXPC-3, BxPC3 cell line, read-out: Pancreatic cancer, EC50 BxPC3
[32] = CAPAN-1, Capan1 cell line, read-out: Pancreatic cancer, EC50 Capan1
[33] = Capan-2, Capan2 cell line, read-out: Pancreatic cancer, EC50 Capan2
[34] = MIA PaCa-2 cell line, read-out: Pancreatic cancer, EC50 MIA PaCa-2
[35] = PANC 05.04 cell line, read-out: Pancreatic cancer, EC50 PANC 05.04
[36] = PANC-1 cell line, read-out: Pancreatic cancer, EC50 PANC-1
[37] = UPAFII cell line, read-out: Pancreatic cancer, EC50 UPAFII
[38] = HCT-116, HCT116 cell line, read-out: Colorectal cancer, EC50 (μM) HCT116
[39] = HT-29, HT29 cell line, read-out: Colorectal cancer, EC50 (μM) HT29
[40] = SW-620, SW620 cell line, read-out: Colorectal cancer, EC50 (μM) SW620
[41] = DLD-1 cell line, read-out: Colorectal cancer, EC50 (μM) DLD-1
[42] = SW48 cell line, read-out: Colorectal cancer, EC50 (μM) SW48
[43] = SW480 cell line, read-out: Colorectal cancer, EC50 (μM) SW480

Sequence of CLK3 (P49761 whole entry): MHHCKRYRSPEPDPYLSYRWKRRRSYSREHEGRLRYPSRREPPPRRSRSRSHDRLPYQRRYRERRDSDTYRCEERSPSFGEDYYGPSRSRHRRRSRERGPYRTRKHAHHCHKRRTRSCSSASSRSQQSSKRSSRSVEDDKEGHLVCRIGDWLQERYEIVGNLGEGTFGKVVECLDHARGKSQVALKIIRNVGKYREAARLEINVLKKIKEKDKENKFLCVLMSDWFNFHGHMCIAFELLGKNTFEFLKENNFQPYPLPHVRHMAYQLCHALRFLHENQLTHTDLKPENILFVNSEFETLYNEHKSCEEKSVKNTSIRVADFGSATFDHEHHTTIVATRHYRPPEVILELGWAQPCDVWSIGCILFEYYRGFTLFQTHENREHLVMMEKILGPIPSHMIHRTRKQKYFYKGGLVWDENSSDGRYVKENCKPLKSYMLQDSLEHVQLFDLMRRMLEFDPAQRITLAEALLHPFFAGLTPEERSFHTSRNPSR
T1 sequence (P49760 whole entry): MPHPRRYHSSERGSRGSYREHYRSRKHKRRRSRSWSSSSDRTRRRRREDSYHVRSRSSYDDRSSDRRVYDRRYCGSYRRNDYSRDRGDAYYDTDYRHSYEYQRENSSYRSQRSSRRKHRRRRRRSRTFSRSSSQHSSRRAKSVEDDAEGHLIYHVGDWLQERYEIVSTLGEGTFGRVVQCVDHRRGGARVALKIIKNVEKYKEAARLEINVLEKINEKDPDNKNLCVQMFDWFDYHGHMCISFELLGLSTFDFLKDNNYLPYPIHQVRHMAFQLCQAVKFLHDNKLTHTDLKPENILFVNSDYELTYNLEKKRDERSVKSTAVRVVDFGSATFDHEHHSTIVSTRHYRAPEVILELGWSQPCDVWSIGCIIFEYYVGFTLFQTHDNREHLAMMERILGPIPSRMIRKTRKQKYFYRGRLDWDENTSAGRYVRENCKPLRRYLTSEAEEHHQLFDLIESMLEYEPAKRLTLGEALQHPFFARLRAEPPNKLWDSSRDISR

- EC50 [1]: 31.2 nM
- EC50 [2, 19]: 88 nM
- EC50 [2, 20]: 383 nM
- EC50 [2, 21]: 674 nM
- EC50 ([3]; PA-1, PA1 cell line, read-out: Ovarian cancer, EC50 (μM) PA1): 0.325 µM
- EC50 ([3]; TOV112D, TOV-112D cell line, read-out: Ovarian cancer, EC50 (μM) TOV-112D): 0.165 µM
- EC50 ([3]; OV-90 cell line, read-out: Ovarian cancer, EC50 (μM) OV-90): 0.486 µM
- EC50 ([3]; OVCAR-3 cell line, read-out: Ovarian cancer, EC50 (μM) OVCAR-3): 0.123 µM
- EC50 [4, 22]: 308 nM
- EC50 [4, 23]: 302 nM
- EC50 [4, 24]: 194 nM
- EC50 [4, 25]: 526 nM
- EC50 [4, 26]: 430 nM
- EC50 [5]: 1.9 nM
- EC50 [7, 27]: 0.29 µM
- EC50 [7, 28]: 0.504 µM
- EC50 [7, 29]: 0.396 µM
- EC50 [7, 30]: 0.144 µM
- EC50 [8, 31]: 451 nM
- EC50 [8, 32]: 249 nM
- EC50 [8, 33]: 555 nM
- EC50 [8, 34]: 141 nM
- EC50 [8, 35]: 232 nM
- EC50 [8, 36]: 401 nM
- EC50 [8, 37]: 203 nM
- EC50 [9, 38]: 0.155 µM
- EC50 [9, 39]: 0.385 µM
- EC50 [9, 40]: 0.13 µM
- EC50 [9, 41]: 0.241 µM
- EC50 [9, 42]: 0.105 µM
- EC50 [9, 43]: 0.16 µM
- EC50 [10]: 374 nM
- EC50 [11]: 73 nM
- EC50 [12]: 534 nM
- EC50 [13]: 163 nM
- EC50 [14]: 272 nM
- EC50 [15]: 379 nM
- EC50 [16]: 467 nM
- EC50 [17]: 914 nM
SMILES: CN(C)CCOc1cc(C(=O)Nc2cc3cc(-c4cnn(C)c4)ccc3cn2)ccn1 [Compound 73]
- EC50 [6]: 306 nM

- EC50 [1]: 14.6 nM
- EC50 [2, 19]: 132 nM
- EC50 [2, 20]: 845 nM
- EC50 [2, 21]: 1290 nM
- EC50 [4, 22]: 713 nM
- EC50 [4, 23]: 674 nM
- EC50 [4, 24]: 525 nM
- EC50 [4, 25]: 966 nM
- EC50 [4, 26]: 546 nM
- EC50 [5]: 1.6 nM
- EC50 ([18]; DND41, DND-41 cell line, read-out: Haematopoietic & Lymphoid tumors, EC50 (μM) DND-41): 0.513 µM
- EC50 ([18]; MV4-11, MV-4-11 cell line, read-out: Haematopoietic & Lymphoid tumors, EC50 (μM) MV-4-11): 0.099 µM
- EC50 ([18]; Rec1, REC-1 cell line, read-out: Haematopoietic & Lymphoid tumors, EC50 (μM) REC-1): 0.164 µM
- EC50 ([18]; SU-DHL-4, SUDHL4 cell line, read-out: Haematopoietic & Lymphoid tumors, EC50 (μM) SUDHL4): 0.62 µM
- EC50 ([18]; HL-60 cell line, read-out: Haematopoietic & Lymphoid tumors, EC50 (μM) HL-60): 1.29 µM
- EC50 ([18]; JM1 cell line, read-out: Haematopoietic & Lymphoid tumors, EC50 (μM) JM1): 0.177 µM
- EC50 ([18]; JURKAT, Clone E6-1 cell line, read-out: Haematopoietic & Lymphoid tumors, EC50 (μM) JURKAT, Clone E6-1): 0.976 µM
- EC50 ([18]; JeKo-1 cell line, read-out: Haematopoietic & Lymphoid tumors, EC50 (μM) JeKo-1): 0.228 µM
- EC50 ([18]; KASUMI-1 cell line, read-out: Haematopoietic & Lymphoid tumors, EC50 (μM) KASUMI-1): 0.363 µM
- EC50 ([18]; Loucy cell line, read-out: Haematopoietic & Lymphoid tumors, EC50 (μM) Loucy): 0.522 µM
- EC50 ([18]; MOLT-4 cell line, read-out: Haematopoietic & Lymphoid tumors, EC50 (μM) MOLT-4): 0.562 µM
- EC50 ([18]; TF-1 cell line, read-out: Haematopoietic & Lymphoid tumors, EC50 (μM) TF-1): 0.897 µM
- EC50 ([18]; TOLEDO cell line, read-out: Haematopoietic & Lymphoid tumors, EC50 (μM) TOLEDO): 0.156 µM
- EC50 [7, 27]: 0.672 µM
- EC50 [7, 28]: 1.1 µM
- EC50 [7, 29]: 0.856 µM
- EC50 [7, 30]: 0.395 µM
- EC50 [8, 31]: 1110 nM
- EC50 [8, 32]: 627 nM
- EC50 [8, 33]: 1040 nM
- EC50 [8, 34]: 272 nM
- EC50 [8, 35]: 818 nM
- EC50 [8, 36]: 736 nM
- EC50 [8, 37]: 381 nM
- EC50 [9, 38]: 0.38 µM
- EC50 [9, 39]: 0.674 µM
- EC50 [9, 40]: 0.198 µM
- EC50 [9, 41]: 0.499 µM
- EC50 [9, 42]: 0.182 µM
- EC50 [9, 43]: 0.404 µM
- EC50 [10]: 677 nM
- EC50 [11]: 512 nM
- EC50 [12]: 888 nM
- EC50 [13]: 381 nM
- EC50 [14]: 655 nM
- EC50 [15]: 561 nM
- EC50 [16]: 711 nM
- EC50 [17]: 1420 nM
SMILES: Cn1ncc(-c2ccc3cnc(NC(=O)c4cccc(CN5CCCC5)c4)cc3c2)c1CN1CCCCC1 [Compound 78]
- EC50 [6]: 610 nM
